US20040022726A1, “Methods and compositions for intravesical therapy of bladder cancer” (priority 2002, published 2004)
Numbered stars: 1 amine (or outer) side, 2 acyl side, 3 side chain; on linkers, the order of the positions; unused ones are H or OH. Square brackets hold non-standard residues; d marks the D form. Side chains are listed from the residue outwards. Peptide text beside a SMILES is read from it. * marks the point of attachment. DOTA = O=C(O)CN1CCN(CC(=O)O)CCN(CC(=O)*)CCN(CC(=O)O)CC1; NH(2-(imidazol-4-yl)ethyl) = c1ncc(CCN*)[nH]1; Suc = O=C(CCC(=O)[*:2])[*:1]

Test system: superficial cancer of the urinary bladder
Conditions: human, in vivo
Experimental: Antibody-Mediated Radioimmunotherapy Using a Beta-Emitting Radionuclide A patient with a superficial cancer of the urinary bladder is treated with a 1:1 molar mixture of the bispecific antibody hMN-14×679-F(ab′)2 [anti-CEA×anti-HSG] of example 1, and the carrier-free Y-90-IMP 241 bivalent hapten of example 3, above. The premixed radioimmunotherapy agent is introduced into the bladder via a urethral catheter inserted under local anesthetic. Prior to injection, the bladder is drained completely, and 70 mL of the complex in 70 mL 0.9% NaCl (comprising 20 mg of the bispecific antibody and 10 mCi of Y-90 conjugated to the bivalent hapten) are instilled and allowed 90 minutes to localize by binding to tumor tissue. The unbound radiolabeled is bispecific antibody mixture is then allowed to evacuate the bladder through the urethra, by washing out the bladder using 50 mL 0.9% NaCl, leaving the remaining administered radioactivity bound substantially only to tumor cells. Seventy-two hours later, the patient is taken to the operating room, where biopsies of macroscopically normal urothelium and bladder tumor are made. The urothelium is separated from the underlying mucularis layer and assayed in a beta scintillating counter to allow measurement of radioactivity in the tumor and in the normal tissue, and then the preparations were fixed in formalin for histopathological evaluation. […]

histology of normal urothelium: relatively intact normal urothelium
Compound: NC(=O)[C@H](CCCCNC(=O)CNC(=O)CCC(=O)NCCc1cnc[nH]1)NC(=O)[C@@H](Cc1ccc(O)cc1)NC(=O)[C@H](CCCCNC(=O)CNC(=O)CCC(=O)NCCc1cnc[nH]1)NC(=O)[C@H](Cc1ccccc1)NC(=O)CN1CCN(CC(=O)O)CCN(CC(=O)O)CCN(CC(=O)O)CC1 [Y-90-IMP 241, metal not drawn] ({DOTA}-FK([Gly-Suc-NH(2-(imidazol-4-yl)ethyl)])[dY]K([Gly-Suc-NH(2-(imidazol-4-yl)ethyl)])-NH2)
